The values below come from PubChem BioAssay (NCI).

Values joined by “and” are separate entries in the source; they are usually repeats but may differ in a detail not shown here. Equal values may be shown once.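 Step 1: Grow cells in 96-well plates. Step 2: Expose to compound for 48 hours at 5 concentrations. Step 3: Interpolate endpoints linearly; if unreached, use highest concentration. The concentration for 50% growth inhibition is given as GI50. The concentration for full growth arrest is given as TGI.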

Common to all, as to assay: inhibition of tumour cell growth, NCI panel, 48 h
For assay [1], the system named is DU-145 prostate.
Assay [2] has as its system HL-60(TB) leukemia.
For assay [3], the system named is HOP-62 NSCLC.
Assay [4] relates to MALME-3M melanoma.
Assay [5] relates to MCF7 breast.
Assay [6] has as its system MOLT-4 leukemia.
Assay [7] relates to RXF 393 renal.
Assay [8] deals with SK-OV-3 ovarian.
Assay [9] concerns SR leukemia.
Assay [10] concerns T-47D breast.

As for `O=C(N/N=C/c1cc2ccccc2c2ccccc12)c1cc(O)c(O)c(O)c1`, the GI50 is 5.79 µM in [1]; 3.54 µM in assay [2]; 3.37 µM in assay [3]; 2.27 µM in assay [4]; 3.68 µM in assay [5]; 3.8 µM in assay [6]. For the same compound, the GI50 was 2.77 µM in assay [7], 4.31 µM in assay [8], 3.72 µM in assay [9] and 2.23 µM in assay [10]. The TGI in assay [1] turned out to be 27 µM; in [2] it was 15.2 µM; in assay [3] it was 12.4 µM; in assay [4] it was 7.19 µM; in [5], 19.7 µM; in assay [6], 18.2 µM. Also, the TGI is 10.1 µM in assay [7], 15.6 µM in assay [8], over 100 µM in [9] and 7.24 µM in assay [10].
Take `CC1=COC2=C(C)C(=O)C(=O)c3c(C)ccc1c32`: the TGI in assay [1] is 20.3 µM; in [2] it was 5.38 µM; in [3], over 36.9 µM; in assay [4], 16 µM; in [5] it was 8.92 µM; in assay [6] it was 12 µM. For the same compound, the TGI was 21.5 µM in assay [7], over 93.2 µM in assay [8], over 42.6 µM in [9] and 27.7 µM in [10].
Consider `COc1cc(/C=C2\C(=O)N(c3c(Cl)cccc3Cl)c3ccccc32)cc(OC)c1O`, for which the GI50 in assay [1] was 0.663 µM; in assay [2], 1.01 µM; in [3] it was 1.23 µM; in assay [4] it was 0.537 µM; in assay [5], 0.524 µM; in assay [6], 0.455 µM. For the same compound, the GI50 is 1.86 µM in assay [7], 2.06 µM in [8], 0.0847 µM in assay [9] and 2.89 µM in assay [10]. The TGI in [1] was found to be 6.13 µM; in assay [2], 8.74 µM; in assay [3], 20.3 µM; in assay [4], 16 µM; in assay [5] it was 9.26 µM; in [6] it was 20.4 µM. The TGI in assay [7] stood at 11.6 µM; in assay [8], 18.9 µM; in [10], 17.8 µM.
Turning to `C#C[C@]1(O)CC[C@H]2[C@@H]3CC=C4c5nc(Nc6ccc(OC)cc6OC)sc5CC[C@]4(C)[C@H]3CC[C@@]21C`, the GI50 was 2.32 µM in [1]; 1.42 µM in assay [2]; 1.93 µM in assay [3]; 0.655 µM in assay [4]; 0.978 µM in [5]; 0.46 µM in assay [6]. The GI50 in assay [7] is 0.262 µM; in [8], 1.83 µM; in assay [9], 0.523 µM; in [10], 2.67 µM. In addition, the TGI turned out to be 10.8 µM in assay [1]; 5.91 µM in [2]; 7.37 µM in [3]; 2.85 µM in assay [4]; 2.65 µM in [5]; 4.69 µM in assay [6]. For the same compound, the TGI in [7] worked out at 0.608 µM; in [8] it was 7.02 µM; in assay [9], 11.2 µM; in assay [10] it was 15.7 µM.
As to `NC(=O)c1c(OCc2c(F)cc(Br)cc2F)nsc1NC(=O)NCCCCN1CCCC1`, the GI50 in assay [1] is 4.59 µM; in assay [2], 2.4 µM; in assay [3], 1.58 µM; in assay [4], 1.73 µM; in [5], 1.99 µM; in assay [6], 2.14 µM. In addition, the GI50 in assay [7] was 0.362 µM; in assay [8], over 10 µM; in assay [9], 1.74 µM; in assay [10], 1.18 µM. Also, the TGI in assay [1] was over 10 µM; in assay [2], 4.68 µM; in [3], over 10 µM; in assay [4], 3.41 µM; in [5], over 10 µM; in assay [6], 9.76 µM. The TGI in assay [7] was 1.71 µM; in [8] it was over 10 µM; in assay [9], 4.37 µM; in [10], over 10 µM.
For the compound `NC(N)=NC(N)=NCCc1ccccc1`, the GI50 in assay [1] is over 100 µM; in [2], 77.4 µM and > 100 µM; in assay [3], 37.4 µM and > 100 µM; in assay [4], 72 µM; in assay [5], over 100 µM; in [6], over 100 µM. For the same compound, the GI50 in assay [7] was over 100 µM; in [8] it was 64.9 µM and > 100 µM; in assay [9], 8.44 µM; in [10] it was 84.8 µM and > 100 µM. Moreover, the TGI in assay [1], in assay [2], in assay [3], in assay [4], in [5] and in assay [6] was over 100 µM each time. Moreover, the TGI in assay [7], in assay [8], in assay [9] and in assay [10] was over 100 µM throughout.
On to `CS(=O)(=O)c1ccc(C(F)(F)F)cc1NC(=O)Nc1cnc(Oc2ccc(-c3cc(Cl)cnc3N)cc2)nc1`, for which the GI50 in assay [1] was 3.21 µM; in assay [2], 2.63 µM; in assay [3], 3.27 µM; in assay [4], 2.05 µM; in [5] it was 2.18 µM; in assay [6], 2.12 µM. Also, the GI50 in assay [7] was 1.79 µM; in assay [8], 3.31 µM; in assay [9] it was 1.98 µM; in assay [10], 2.05 µM. In addition, the TGI in [1] was over 54.2 µM; in assay [2], 5.75 µM; in assay [3], 12.5 µM; in [4], 5.29 µM; in assay [5], 7.35 µM; in [6] it was 6.53 µM. Moreover, the TGI in assay [7] is 4.61 µM; in [8] it was 18 µM; in assay [9], 4.66 µM; in assay [10], 7.7 µM.
As for `CCN(C)S(=O)(=O)Nc1cccc(Nc2ncnc3cc(NC(=O)CCl)ccc23)c1Cl`, the GI50 in assay [1] was 3.69 µM; in [2], 4.74 µM; in assay [3], 3.42 µM; in assay [4], 1.42 µM; in assay [5] it was 1.11 µM; in assay [6], 0.926 µM. The GI50 in [7] is 3.57 µM; in assay [8], 5.58 µM; in assay [9] it was 0.824 µM; in assay [10], 5.01 µM. The TGI came out at 8.86 µM in assay [1]; 11.3 µM in [2]; 7.73 µM in [3]; 5.62 µM in [4]; 8.33 µM in assay [5]; 8.83 µM in assay [6]. In addition, the TGI amounted to 7.42 µM in assay [7], 19.1 µM in assay [8], 7.76 µM in [9] and 13.2 µM in [10].
On to `N#Cc1ccc(-n2cnc(NC(=O)[C@H]3CCN(C#N)C3)c2)cc1`, for which the GI50 in [1] was 1.52 µM; in assay [2], 0.51 µM; in assay [3], 2.28 µM; in [4] it was 0.312 µM; in [5], under 0.0378 µM; in [6] it was 2.15 µM. Moreover, the GI50 is 0.374 µM in assay [7], 3.77 µM in assay [8], 0.375 µM in [9] and 0.706 µM in assay [10]. Further, the TGI in assay [1] is 49.4 µM; in assay [2], 2.86 µM; in assay [3], 15.5 µM; in assay [4], 6.58 µM; in assay [5], over 100 µM; in [6], over 29.8 µM. In addition, the TGI in assay [7] was 2.6 µM; in [8], over 51.4 µM; in [9], over 100 µM; in assay [10] it was 6.86 µM.
On to `CCOC(=O)C(=Cc1ccc(Br)cc1)C(=O)OCC`, for which the GI50 in assay [1] was 1.68 µM; in assay [2] it was 1.63 µM; in assay [3] it was 2.78 µM; in assay [4], 2.32 µM; in assay [5] it was 1.66 µM; in assay [6], 2.94 µM. For the same compound, the GI50 in assay [7] was 1.15 µM; in assay [8] it was 5.41 µM; in [9], 2.41 µM; in [10] it was 2.12 µM. Also, the TGI in assay [1] came out at 3.07 µM; in assay [2], 7.53 µM; in [3], 5.47 µM; in assay [4], 5.59 µM; in [5] it was 6.67 µM; in assay [6] it was 20.2 µM. In addition, the TGI in assay [7] was 2.55 µM; in assay [8] it was 17 µM; in [9], over 23.1 µM; in assay [10] it was 6 µM.
Turning to `O=C(c1cccs1)c1c(C(F)(F)F)n([O-])c2cc(F)c(F)cc2[n+]1=O`, the GI50 was 1.9 µM in assay [1]; 0.904 µM in [2]; 3.77 µM in assay [3]; 0.79 µM in assay [4]; 1.31 µM in [5]; 0.498 µM in assay [6]. In addition, the GI50 in [7] was 2.42 µM; in [8], 2.69 µM; in assay [9] it was 0.096 µM; in assay [10], 2.25 µM. Further, the TGI amounted to 4.86 µM in assay [1]; 5.65 µM in assay [2]; 6.21 µM in assay [3]; 1.52 µM in assay [4]; 15.4 µM in assay [5]; 7.84 µM in assay [6]. In addition, the TGI in [7] is 7.16 µM; in [8], 5.85 µM; in [9], 0.48 µM; in assay [10], 5.96 µM.
Turning to `Cc1cc(N2CCN(C)CC2)nc(NC2CCCC(Nc3ccnc4cc(Cl)ccc34)C2)n1` (centres undefined), the GI50 in [1] is 3.05 µM; in assay [2], 2.09 µM; in [3], 2.22 µM; in assay [4] it was 1.82 µM; in assay [5], 1.39 µM; in assay [6], 1.77 µM. For the same compound, the GI50 in assay [7] was 1.42 µM; in assay [8] it was 3.35 µM; in [9], 0.643 µM; in assay [10], 1.91 µM. Moreover, the TGI is 12.7 µM in [1]; 4.09 µM in assay [2]; 6.03 µM in assay [3]; 3.45 µM in assay [4]; 4.45 µM in assay [5]; 7.59 µM in assay [6]. Further, the TGI in assay [7] worked out at 3.17 µM; in assay [8] it was 11.5 µM; in assay [9], 5.23 µM; in assay [10] it was 4.6 µM.
Consider `O=C1/C(=C\c2ccccc2)c2ccccc2N1Cc1ccccc1`, for which the TGI in assay [1] is 17 µM; in assay [2] it was over 31.6 µM; in assay [3] it was 17.6 µM; in [4] it was 12.8 µM; in assay [5], 12.3 µM; in assay [6], 5.4 µM. Moreover, the TGI in assay [7] is 16.1 µM; in [8] it was 15.8 µM; in assay [9] it was 9.66 µM; in assay [10] it was 15.1 µM.
Turning to `COc1cc2cc(C(=O)O)[nH]c2cc1OCc1ccccc1`, the GI50 in assay [1] was over 100 µM; in assay [2], over 100 µM; in assay [3] it was over 100 µM; in assay [4], 2.97 µM; in assay [5], 93.2 µM; in [6], over 100 µM. Further, the GI50 in assay [7], in assay [8], in assay [9] and in [10] was over 100 µM in each case. Moreover, the TGI is over 100 µM in assay [1]; over 100 µM in [2]; over 100 µM in assay [3]; 12.2 µM in assay [4]; over 100 µM in assay [5]; over 100 µM in [6]. Further, the TGI in assay [7], in [8], in [9] and in assay [10] was over 100 µM each time.
On to `NC(C(=O)O)C(N)C(=O)O` (centres undefined), for which the TGI in [1], in assay [2], in assay [3], in [4], in assay [5] and in [6] was over 100 µM throughout. In addition, the TGI in assay [7], in assay [8], in [9] and in assay [10] was over 100 µM in each case.
